In patent publication US20230134760A1, “CAR AND NRF2 DUAL ACTIVATOR AGENTS FOR CYCLOPHOSPHAMIDE-BASED AND DOXORUBICIN-BASED TREATMENTS OF CANCER” (priority 2020, published 2023):

Experiments:
[1] = test system: hCAR; assay: Ad/EYFP-hCAR translocation assay in HPH; format: cell-based, human; conditions: Ad-EYFP-hCAR-infected HPH; DL7076 10 μM, PB 1 mM
Protocol: HPH were seeded on collagen-coated 12-well plates. 24 hours after seeding, HPH were infected with Ad/EYFP-hCAR at a concentration of 5 μL/mL of media and incubated overnight. HPH infected cells were treated with a vehicle control (DMSO 0.01%), a positive control (1 mM PB), and compounds of interest for 8 h. Fluorescence was viewed using the YFP channel (Nikon Eclipse Ti) and quantified by identifying the number of total cells expressing EYFP-hCAR over EYFP-hCAR present in the nucleus. Representative images are shown, and quantitative data represents the mean±SD of 3 individual images for each treatment group.

[2] = test system: Nrf2; assay: Nrf2 expression and nuclear translocation in H9c2 cardiomyocytes (Western blot); format: cell-based, rat
Excerpt: Protein was harvested using cell lysis buffer (Cell Signaling Technology, Danvers, Mass.) with a complete protease inhibitor cocktail (Roche, Mannheim, Germany) prior to homogenizing via sonification. Homogenized protein from treated HPH, H9c2, BT549, and MDA-MB-231 cells were resolved on NuPage Novex Bis-Tris 4-12% gels (Life Technologies) or NuPage Novex Bis-Tris 12% gel and transferred through electrophoresis onto immobilon-P polyvinylidene difluoride (PVDF) membranes. Membranes were blocked with 5% BSA or 5% milk in Tris-Buffer saline with Tween 20 (TBST). Further, membranes were incubated with specific antibodies against human CYP2B6 (1:1000, Abcam), CYP3A4 (1:1000, Millipore Sigma), HO-1 (1:1000, Abcam), cleaved caspase-3 (1:1000 Cell Signaling Technologies), Nrf2 (1:1000, Abcam), TATA-Binding Protein (1:500, Santa Cruz) β-actin (1:3000, Millipore Sigma) at 4° C. overnight. Following overnight incubation, horseradish peroxidase goat anti-mouse or anti-rabbit IgG antibodies were used for secondary incubation. Membranes were developed using SuperSignal West Pico Chemiluminescent Substrate (Thermo Scientific) or Radiance Q (Azure). Two TNBC cell lines, cardiomyocytes, and HPH protein samples were isolated and resolved on a 4-12% or 12% SDS PAGE gel followed by electrophoretic transfer to a PVDF membrane. […]

[3] = test system: BT549 cells; assay: HPH/BT549 co-culture, CPA cytotoxicity (CCK8); format: cell-based; conditions: HPH/BT549 coculture, DL7076 10 μM + CPA
Protocol: HPH were cultured in collagen-coated 24 well plates and pre-treated with vehicle control (0.1% DMSO), CITCO (1 μM) or DL7076 (5 μM or 10 μM) for 24 h. […] Following the 24 h pre-treatment, coverslips were combined in hepatocyte seeded wells and exposed to designated concentrations of cyclophosphamide in the presence or absence of DL7076 for various time intervals, as indicated.
H9c2 cells were seeded 0.8×10^5 in 24-well plates. Following cell attachment, a 2 h pre-treatment with vehicle control (0.1% DMSO), SFN (2.5 μM) or DL7076 (1 μM, 5 μM, or 10 μM) was done followed by doxorubicin (2.5 μM) exposure for 22 h. Co-culture cells were assembled and treated with cyclophosphamide and doxorubicin as indicated. A Cell Counting Kit-8 (Enzo) assay was carried out. Cell viability was described as a percent of vehicle control (0.1% DMSO). Cardiomyocyte, human iPSC-derived cardiomyocytes, and BT549 viability was determined with a 1 hr incubation of 6% CCK8 in WEM.

[4] = test system: BT549 cells; assay: Multi-organ co-culture (BT549/HPH/H9c2), BT549 viability; format: cell-based; conditions: DL7076 10 μM
Protocol: Additionally, HPH were cultured in collagen-coated 6-well plates and pre-treated as described in the previous co-culture system. BT549 and H9c2 cells were plated on similar modified coverslips 0.8×10^5 cells and allowed to attach for 24 hours during hepatocyte pre-treatment. […] Following pre-treatment, BT549 coverslips were inserted adjacent to H9c2 coverslips over the sandwich cultured HPH as depicted in FIG. 43a. […] Both BT549 and H9c2 cells were harvested at indicated time points and assess for viability, apoptosis, and DNA damage as detailed further. H9c2 cells were seeded 0.8×10^5 in 24-well plates. […] A Cell Counting Kit-8 (Enzo) assay was carried out. Cell viability was described as a percent of vehicle control (0.1% DMSO).

[5] = test system: HO-1; assay: HO-1 expression in human iPSC-derived cardiomyocytes; format: cell-based; conditions: human iPSC-derived cardiomyocytes, 1, 5, 10 μM
Protocol: Immortalized triple negative breast cancer cell lines MDA-MB-231 and BT549 were obtained from ATCC (Rockville, Md.). Additionally, the h9c2 cell line was purchased from ATCC (Rockville, Md.). […] Human iPSC-derived cardiomyocytes were maintained in Mtesr plus and supplemented according to protocol. These cells were treated for 2 hrs or an overnight as indicated. Following a 2 hr pretreatment, cells were co-treated with DOX at indicated concentrations for 6 or 22 hours. Following the overnight treatments, RNA or protein was isolated. HPH were seeded in collagen-coated 24 well plates and pretreated for 24 hrs. BT549 were seeded on inverted coverslips. After a 24 hr pretreatment, hepatocytes were co-administered as indicated and coverslips were inserted. The cell lines were used for less than 60 passages. After 24 h treatment, HPH, BT549, MDA-MB-231, and H9c2 cells were washed and a phenol-chloroform extraction was used to isolate total RNA with the TRIzol reagent (ThermoFisher, Rockford, Ill.). Reverse transcription was performed on extracted RNA (1 μg) to produce cDNA using the High Capacity cDNA Archive kit according to manufacturer's instructions (Applied Biosystems, Foster, Calif.). […] Quantification of expression changes was done by the 2^ΔΔCt method, normalizing to GAPDH as the housekeeping gene and determining the fold change compared to control values (n=3).

O=C(NCCN=C=S)c1c(-c2ccc3ccccc3c2)nc2sccn12 [DL7076, N-(2-Isothiocyanatoethyl)-6-(naphthalen-2-yl)imidazo[2,1-b]thiazole-5-carboxamide]
EYFP-hCAR nuclear translocation [1]: triggered hCAR nuclear translocation
Nrf2 nuclear accumulation ([2]; nuclear extracts of H9c2, 1, 5, 10 μM): accumulating in a concentration dependent manner within the nucleus
Nrf2 expression ([2]; whole H9c2 cell lysates, 1, 5, 10 μM): increased Nrf2 expression in a concentration dependent manner
CPA cytotoxicity in BT549 cells with cotreatment [3]: significantly enhanced the cytotoxicity of CPA
CPA/DOX cytotoxicity in BT549 cells [4]: selectively enhanced CPA/DOX regimen cytotoxicity in BT549 cells
HO-1 expression [5]: concentration-dependently induced
